One series addresses T1, alpha-1A adrenoceptors (Homo sapiens, UniProt P35348).
T1 sequence (P35348 1-466): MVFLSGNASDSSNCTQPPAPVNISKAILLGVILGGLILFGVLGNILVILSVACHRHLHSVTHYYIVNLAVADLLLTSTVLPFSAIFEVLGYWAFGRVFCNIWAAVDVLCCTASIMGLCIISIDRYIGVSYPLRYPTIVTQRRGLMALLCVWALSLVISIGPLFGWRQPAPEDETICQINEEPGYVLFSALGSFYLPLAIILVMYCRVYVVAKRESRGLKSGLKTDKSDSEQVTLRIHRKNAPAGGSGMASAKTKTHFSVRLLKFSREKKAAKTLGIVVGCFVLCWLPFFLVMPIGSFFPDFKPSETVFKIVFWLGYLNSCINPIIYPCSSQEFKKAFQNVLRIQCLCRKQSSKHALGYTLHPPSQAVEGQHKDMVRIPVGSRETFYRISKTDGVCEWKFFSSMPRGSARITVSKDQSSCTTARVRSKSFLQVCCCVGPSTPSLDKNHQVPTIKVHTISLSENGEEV
In words: alpha-1A adrenoceptor partial agonist activity (intrinsic activity and pEC50). Type of series: biochemical.

The test system of series [1] is Female Yucatan Micro-Swine. Put plainly: Conscious pig model (IUP, MAP, HR). Type of series: in vivo. Here is the method:
In general, IUP is the intraurethral pressure and is measured as the 2 minute mean from the first peak of the urethral response (FIG. 1). MAP is the mean arterial blood pressure and is measured as the average blood pressure during the 2 minute section where IUP is measured. The durability is the slope of the IUP response in mmHg/min and is calculated immediately after the 2 minute IUP response for 5 minutes (2-7 minutes post the first peak) for the top 3 doses.
Conscious Pig Materials and Methods
Sling Training: Female Yucatan Micro-Swine were trained to stay in a sling for up to 4 hours. Swine were exposed to progressively longer sling durations per IACUC sling-training guideline.
Surgical Instrumentation: Female Yucatan Micro-swine were instrumented with a telemetry device with both pressure and ECG monitoring capabilities (Data Sciences International St Paul Minn.). In addition, a Bardport low profile titanium VAP was placed subcutaneously for blood sampling. All devices were implanted by the surgical veterinarian at Roche Palo Alto. Briefly, the telemetry probe body was placed subcutaneously in the cervical region. The intra-arterial pressure catheter was advanced via the superficial cervical artery into the subclavian artery for blood pressure measurement. The ECG leads were placed intra-muscularly: one in the intercostal muscle between the T8-T10 regions on the left side, and the other in the intercostal muscles between the T1-T3 regions on the right side. The VAP was placed subcutaneously in the neck region, with the catheter advanced into the jugular vein. […]
Experiment: After the swine was fully awake and stable (usually approximately 1 hour post wake up), baseline blood pressure, IUP, and heart rate parameters were determined. […]
Data Generating and Analysis Systems: Cardiovascular readings were generated by the TL11M3-D70-PCP (Data Sciences International, St. Paul, Minn.) telemetry device and associated hardware. […] IUP was monitored by a solid state catheter connected to a TA6000 Polygraph (Data Sciences International, St. Paul, Minn.). […]

The text below walks through data of patent US7799816B2, “Imidazolinylmethyl aryl sulfonamide” (Roche Palo Alto LLC, priority 2008, dated 2010).

For the compound `CS(=O)(=O)Nc1cc(F)c(CC2=NCCN2)c(Br)c1Br` [Formula I, N-[2,3-Dibromo-4-(4,5-dihydro-1H-imidazol-2-ylmethyl)-5-fluoro-phenyl]-methanesulfonamide], the “intrinsic activity, or efficacy, as a partial agonist” value on alpha-1A adrenoceptors (ideally between 0.35 to 0.60) worked out at 0.38. In addition, the EC50 at alpha-1A adrenoceptors (read-out: affinity, or pEC50 value (converted)) is 200 nM. Also, in series [1], the “maximum arterial blood pressure effect” value was “low maximum arterial blood pressure effect” and the “selectivity for enhancement of intraurethral pressure (IUP) over blood pressure (MAP)” value is on record as “selectivity for enhancement of intraurethral pressure (IUP) over blood pressure (MAP)”. Further, in series [1] (iv infusion, compared to analogue compound (FIG. 1b vs FIG. 1c)), the “durability of IUP response over time” value is “unexpectedly increased durability of IUP response over time”.
